Test results from article PMC9883013 (eLife, 2023).
Several values for one entry are separate records, joined by “and”; a condition that tells them apart may be missing. Equal entries are not always repeated. Entries after “also recorded” stand apart in the source; their conditions may differ. Where two headings read alike, the source gives them in different places.

Tests used:
SERT = target: T1, SERT (Homo sapiens, UniProt P31645); assay: Inhibition of [3H]citalopram binding to membranes from HEK293 cells expressing GFP-SERT
T1 construct: expressed in transfected cells
Protocol: Membranes were prepared from HEK293 cells stably expressing GFP-SERT. […] The pellets were resuspended in a buffer containing 20 mM HEPES, 2 mM MgCl2, 1 mm EDTA, pH adjusted to 7.4 with NaOH, subjected to freeze-thaw cycles in liquid nitrogen and sonicated on ice three times for 10 s with 30 s intervals. Following another centrifugation step, the whole-cell membrane pellets were resuspended in buffer and protein concentration was estimated by dye binding (Coomassie Brilliant Blue R-250; Bio-Rad, USA). […] Binding reactions were also done in the presence of 120 mM K^+ buffer (buffer composition: 20 mM Tris-HCl, pH 7.4, 1 mM EDTA, 2 mM MgCl2, 120 mM KCl; 4 mM Na^+ were present from the carry-over of HEPES·NaOH and from Na·EDTA). For binding reactions under these conditions, 7–8 µg of membranes were used to improve the dynamic range of binding. The binding reactions were terminated by harvesting the membranes on glass fiber filters precoated with polyethylenimine and rapid washing with ice-cold wash buffer (10 mM Tris·HCl, pH 7.4, 120 mM NaCl, 2 mM MgCl2). The radioactivity trapped on the filters was quantified by liquid scintillation counting. Nonspecific binding was measured in the presence of 10 µM paroxetine.

[1] = target: T2, wild-type GFP-tagged human SERT (Homo sapiens, UniProt P31645); assay: Whole-cell patch clamp recordings of currents through SERT; format: cell-based; settings: for transient peak current on application of the compound: 100 µM, absence of substrate
T2 construct: expressed in transfected cells
Protocol: HEK293 cells stably expressing wild-type GFP-tagged human SERT were seeded at low density on poly-D-lysine-coated dishes. Twenty hr after seeding, these cells were subjected to patch clamp recordings in the whole-cell configuration. In most instances cells were continuously maintained in an external solution containing 140 mM NaCl, 3 mM KCl, 2.5 mM CaCl2, 2 mM MgCl2, 20 mM glucose, and 10 mM HEPES (pH adjusted to 7.4 with NaOH) and the drugs were diluted therein. The internal solution in the patch pipette contained 133 mM potassium gluconate (CH2OH(CHOH)4COOK), 5.9 mM NaCl, 1 mM CaCl2, 0.7 mM MgCl2, 10 mM HEPES, 10 mM EGTA (pH adjusted to 7.2 with KOH). Drugs were applied using a 4-tube ALA perfusion manifold (NPI Electronic GmbH, Germany) and a DAD-12 superfusion system (Adams & List, Westbury, NY, USA) allowing for complete solution exchange around the cells within 100 ms. Current amplitudes and associated kinetics were quantified using Clampfit 10.2 software. Passive holding currents were subtracted, and the traces were filtered using a 100 Hz digital Gaussian low-pass filter.

SERT-PG^601,602AA [2] = target: T3, SERT-PG^601,602AA (Homo sapiens, UniProt P31645, G602A/P601A); assay: Functional rescue (pharmacochaperoning) of folding-deficient SERT mutant, [3H]5-HT uptake after 24 hr preincubation; format: cell-based; settings: for [3H]5-HT uptake normalized to untreated wild-type SERT: 30 µM for 24 hr, 0.1 µM [3H]5-HT, untreated mutant 14.8 ± 5.3%; for Emax: read-out: EMAX of pharmacochaperoning (rescued uptake, % of transport velocity in cells expressing wild-type SERT)
T3 construct: expressed in transfected cells; host or cells: HEK293 (ATCC CRL-1573), transient PEI transfection

SERT-PG^601,602AA [3] = target: T3, SERT-PG^601,602AA; assay: Immunoblotting of glycosylation state (mature vs core-glycosylated band) of the SERT mutant; format: cell-based
[4] = tested on: YFP-tagged human SERT-PG^601,602AA in serotonergic neurons; assay: Delivery of mutant transporter to the fan-shaped body in transgenic flies fed with drug; format: in vivo, Drosophila melanogaster; settings: 100 µM in food for 48 hr, 3-day old male flies
From the text: (§1) The transgenic UAS reporter lines for YFP-tagged human wild-type SERT and SERT-PG^601,602AA were generated using the pUAST-attB vector (gift from Drs Bischof and Basler, University of Zürich) and injected into embryos of ZH-86Fb flies (Bloomington stock no. 24749). Positive transformants were isolated and selected. TRH-T2A-Gal4 (Bloomington stock no. 84694) was used to drive the expression of transporters in serotonergic neurons. […] The brains of these flies were then imaged using confocal microscopy. All flies were kept at 25°C, and all crosses were performed at 25°C.
(§2) Adult fly brains were dissected in PBS and fixed in 2% paraformaldehyde in PBS for 1 hr at room temperature. Brains were then washed three times in 0.1% Triton X-100 in PBS for 20 min on a shaker. Blocking was performed in 10% goat serum for 1 hr at room temperature on a shaker. Brains were then incubated in primary antibody overnight in PBS containing 3% BSA and 0.3% Triton X-100 at 4°C on a shaker. The rabbit polyclonal IgG directed against GFP (1:1000 dilution; A-11122, Invitrogen) and anti-serotonin antibody (S5545, Sigma-Aldrich) were used as primary antibodies. After three washes for 20 min with PBS containing 0.1% Triton X-100, the brains were incubated overnight at 4°C with a secondary antibody in PBS containing 0.3% Triton X-100 on a shaker. […]

[5] = tested on: YFP-tagged wild-type human SERT in serotonergic neurons; assay: Localization of wild-type transporter in the fan-shaped body in transgenic flies fed with drug; format: in vivo, Drosophila melanogaster; settings: 100 µM in food for 48 hr, flies harboring wild-type human SERT
From the text: as §1, §2

[6] = target: T2, wild-type GFP-tagged human SERT; assay: Whole-cell patch clamp recordings of currents through SERT; format: cell-based; settings: 100 µM pre-applied for 1 s or 3 s in the absence of 5-HT; internal 150 mM NaCl
[7] = target: T4, wild-type human YFP-tagged SERT (Homo sapiens, UniProt P31645); assay: Inhibition of SERT-mediated [3H]5-HT uptake in HEK293 cells stably expressing YFP-SERT; format: cell-based; design: expressed in transfected cells
WT-SERT = WT-SERT (Homo sapiens, UniProt P31645); assay: [3H]5-HT uptake by cells transiently expressing WT-SERT after 24 hr preincubation; settings: 30 µM for 24 hr; 0.1 µM [3H]5-HT
[8] = target: T4, wild-type human YFP-tagged SERT; assay: Saturation kinetics (KM, Vmax) of 5-HT uptake by SERT after preincubation with inhibitor
NCCc1c[nH]c2ccc(O)cc12 = assay: cells, lysate or membranes; settings: other: absence of any inhibitor; pH 7.4
[9] = inhibition of 10 µM 5-HT-induced steady current
[10] = preincubation with 10 µM inhibitor
[11] = preincubation with 30 µM inhibitor
[12] = preincubation with 3 µM inhibitor

O=CNC(Cc1ccc2c(c1)OCO2)Cc1ccc2c(c1)OCO2 [ECSI#6, N-formyl-1,3-bis (3,4-methylenedioxyphenyl)-prop-2-yl-amine]
fold more potent in displacing [3H]citalopram in 120 mM KCl than in 120 mM NaCl (SERT): about 10 fold
binding relative to serotonin (Dixon plots) (SERT; 1 and 10 µM serotonin): mutually exclusive
IC50 (SERT; IC50(1 µM 5-HT), inhibition of [3H]citalopram binding, 120 mM Na+, 1 µM 5-HT): 28.6 µM
IC50 (SERT; IC50(10 µM 5-HT), inhibition of [3H]citalopram binding, 120 mM Na+, 10 µM 5-HT): 60 µM
IC50 (SERT; IC50(no 5-HT), inhibition of [3H]citalopram binding, 120 mM Na+, 3 nM [3H]citalopram, no 5-HT): 16 µM
IC50 (SERT; buffer with 120 mM K+, read-out: IC50(120 K+), inhibition of [3H]citalopram binding): 4.18 µM and 5 µM
IC50 (SERT; buffer with 120 mM Na+ (Na+/K+ comparison), read-out: IC50(120 Na+), inhibition of [3H]citalopram binding): 46.2 µM
affinity estimate, fold lower than the KD of 1 µM required for ToNaS (SERT; presence of 10 µM 5-HT): > 30 fold
IC50 ([1]; 30 µM 5-HT, ECSI#6 co-applied, read-out: IC50 of block of the 5-HT-induced steady current): 4.5 µM and ~5 µM
effect on 5-HT-induced steady current ([1]; 100 µM in continuous presence of 10 µM 5-HT): complete suppression of the current
effect of intracellular application on 5-HT-induced current amplitude ([1]; 100 µM in the electrode solution, 30 µM 5-HT): only had a modest effect, if any; also recorded: did not cause an appreciable current block
ratio of the second and first pulse (peak 2/peak 1) ([1]; 100 µM pre-applied for 1 s or 3 s): always close to one
transient peak current on application of the compound [1]: failed to do so
koff (y-intercept of kapp vs concentration) [1, 9]: 1.7±0.5 s^–1
kon (slope of kapp vs concentration) [1, 9]: 2.1*10^4±3.5*10^3 M^–1 s^–1
[3H]5-HT uptake normalized to untreated wild-type SERT (SERT-PG^601,602AA [2]): 56.5 ± 5.1%
EC50 (SERT-PG^601,602AA [2]; 24 hr preincubation, read-out: EC50 for pharmacochaperoning (rescued uptake)): 2.9 µM
Emax (SERT-PG^601,602AA [2]): 52%
EC50 (SERT-PG^601,602AA [3]): 0.44 µM
EMAX of ratio of mature (M) to core-glycosylated band (C) (SERT-PG^601,602AA [3]; 24 hr treatment, densitometry, corrected for Gβ): 1.42 AU
delivery of the mutant transporter to the presynaptic territory (fan-shaped body) [4]: partially restored the delivery of the mutant transporter to the presynaptic territory
effect on level of fluorescence in the fan-shaped body [5]: did not have any appreciable effect
effect of pre-application on 5-HT-induced peak current amplitude [6]: did not result in the reduction of the peak current amplitude
IC50 ([7]; IC50(0.1), inhibition of [3H]5-HT uptake, 0.1 µM [3H]5-HT, absence of additional unlabeled 5-HT): 441 µM
IC50 ([7]; IC50(1), inhibition of [3H]5-HT uptake, 0.1 µM [3H]5-HT, presence of 1 µM unlabeled 5-HT): 74.1 µM
IC50 ([7]; IC50(3), inhibition of [3H]5-HT uptake, 0.1 µM [3H]5-HT, presence of 3 µM unlabeled 5-HT): 25.6 µM
IC50 ([7]; IC50(10), inhibition of [3H]5-HT uptake, 0.1 µM [3H]5-HT, presence of 10 µM unlabeled 5-HT): 19.3 µM
IC50 ([7]; low 5-HT concentration (0.1 µM), read-out: IC50 value in the uptake assay): ~500 µM
[3H]5-HT uptake normalized to untreated wild-type SERT (WT-SERT): 103.3 ± 11.3%
mode of inhibition of substrate uptake by SERT [8]: uncompetitive inhibition
VMAX of 5-HT transport by SERT [8, 10]: 89.5 pmol min^–1 10^–6 cells
VMAX of 5-HT transport by SERT [8, 11]: 49.9 pmol min^–1 10^–6 cells
VMAX of 5-HT transport by SERT ([8]; preincubation with 100 µM inhibitor): 20.8 pmol min^–1 10^–6 cells

COC(=O)[C@H]1[C@@H](OC(=O)c2ccccc2)C[C@@H]2CC[C@H]1N2C [cocaine]
potency in inhibiting [3H]citalopram binding in 120 mM KCl compared with 120 mM NaCl (SERT): substantially less potent (by an order of magnitude)
kapp of current inhibition, level at which it leveled off ([1]; 10 µM 5-HT-induced steady current, –60 mV): about 2 s^–1
transient peak current on application of the compound [1]: induced transient peak currents
effect on SERT species carrying mature glycans (SERT-PG^601,602AA [3]; 30 µM (saturating concentration), 24 hr): did not cause any appreciable increase
[3H]5-HT uptake normalized to untreated wild-type SERT (WT-SERT): 111.4 ± 4.2%
mode of inhibition of substrate uptake by SERT [8]: competitive
VMAX of 5-HT transport by SERT [8, 12]: 118.3 pmol min^–1 10^–6 cells
VMAX of 5-HT transport by SERT [8, 10]: 121.1 pmol min^–1 10^–6 cells
VMAX of 5-HT transport by SERT [8, 11]: 120.1 pmol min^–1 10^–6 cells

CCC1CC2CC3c4[nH]c5ccc(O)cc5c4CCN(C2)C13 (stereo not drawn) [noribogaine, reference compound]
potency in inhibiting [3H]citalopram binding in 120 mM KCl compared with 120 mM NaCl (SERT): distinct binding preference was not obvious
transient peak current on application of the compound [1]: induced transient peak currents
[3H]5-HT uptake normalized to untreated wild-type SERT (SERT-PG^601,602AA [2]): 71.9 ± 6.4%
Emax (SERT-PG^601,602AA [2]): 69.5%
delivery of the mutant transporter to the presynaptic territory (fan-shaped body) [4]: partially restored the delivery of the mutant transporter to the presynaptic territory
effect on level of fluorescence in the fan-shaped body [5]: did not have any appreciable effect
[3H]5-HT uptake normalized to untreated wild-type SERT (WT-SERT): 93.5 ± 28.8%
mode of inhibition of substrate uptake by SERT [8]: non-competitive
VMAX of 5-HT transport by SERT ([8]; preincubation with 1 µM inhibitor): 82.4 pmol min^–1 10^–6 cells
VMAX of 5-HT transport by SERT [8, 12]: 39.9 pmol min^–1 10^–6 cells
VMAX of 5-HT transport by SERT [8, 10]: 19.5 pmol min^–1 10^–6 cells

wild-type human YFP-tagged SERT (Homo sapiens)
Km (NCCc1c[nH]c2ccc(O)cc12): 2.3 µM
